This is an account of results in patent US8481561B2, “Classes of GABAA/BZR ligands” (Innovationspatent Sverige AB, priority 2008, dated 2013).

Series [1] has as its target benzodiazepine receptor. In words: Displacement of 3H-flumazenil binding in rat cortical tissue (receptor binding). The conditions noted are these: 3H-Flumazenil binding in vitro, rat cortical membranes; mean of three determinations. Here is the method:
Affinity of test substances for the benzodiazepine receptor was determined in vitro by displacement of ^3H-flumazenil in rat cortical tissue.
(In general: Loss of bound radioactivity is the signal in a displacement assay; it reports binding, not function.)

One may read the melting point as the temperature, or range, at which the solid turns liquid. Usually Ki stands for a dissociation constant, usually derived from enzyme kinetics or from competition with a known ligand.

For the compound `Cc1ccc(-c2nsc3[nH]c4ccc(C)cc4c(=O)c23)cc1` [Compound 19, 6-Methyl-3-(4-methylphenyl)isothiazolo[5,4-b]quinolin-4(9H)-one], the melting point amounted to 330 °C. This compound came in with an inhibitory constant (Ki) in series [1] of 1.9 nM.
The like results for `Cc1ccc2[nH]c3snc(-c4ccc(Br)cc4)c3c(=O)c2c1` [Compound 21, 3-(4-Bromophenyl)-6-methylisothiazolo[5,4-b]quinolin-4(9H)-one] were, in that order, 357 °C and 5.3 nM.
The compound `COc1ccc(-c2nsc3[nH]c4ccc(C)cc4c(=O)c23)cc1` [Compound 22, 3-(4-Methoxyphenyl)-6-methylisothiazolo[5,4-b]quinolin-4(9H)-one] displayed a Ki in series [1] of 2 nM.
In turn, `Cc1ccc2[nH]c3snc(-c4ccc([N+](=O)[O-])cc4)c3c(=O)c2c1` [Compound 23, 6-Methyl-3-(4-nitrophenyl)-isothiazolo[5,4-b]quinolin-4(9H)-one] came in with a melting point of 343 °C. The compound also came in with an inhibitory constant (Ki) in series [1] of 5.5 nM.
The compound `Cc1ccc(-c2nsc3[nH]c4ccc(Br)cc4c(=O)c23)cc1` [Compound 24, 6-Bromo-3-(4-methylphenyl)isothiazolo[5,4-b]quinolin-4(9H)-one] registered a melting point of 331 °C. Moreover, the Ki in series [1] came out at 2.9 nM.
Take `Cc1ccc2[nH]c3onc(-c4ccccc4)c3c(=O)c2c1` [Compound 26, 6-Methyl-3-phenyl-isoxazolo[5,4-b]quinolin-4(9H)-one]: the affinity in series [1] corresponds to a Ki of 18 nM.
Take `CCCC(=O)Nc1nsc2[nH]c3ccc(C)cc3c(=O)c12` [Compound 31, N-(6-methyl-4-oxo-4,9-dihydroisothiazolo[5,4-b]quinolin-3-yl)butanamide]: in series [1], the affinity corresponds to a Ki of 2 nM. Compared with the last compound, the Ki is about 9-fold lower.
